Experimental data published in US20250186408A1, “TREATMENT OF PHARMACORESISTANT EPILEPSY” (Katholieke Universiteit Leuven, priority 2021, published 2025).
Like-named read-outs stand apart in the source and are kept apart here.

Assays:
[1] = Intrinsic clearance (liver microsomes); format: in vitro ADME; settings: pooled liver microsomes, pH 7.4, human liver microsomes
Text: In vitro ADME profiling of compounds was done by Eurofins Panlabs Inc (St Charles, MO, USA) using their ADME-Tox service (Cat Ref P375, Tier 1 ADME Panel). […] (28). The atom-based log P calculation method, called OsirisP, uses as an increment system and adds contributions of every atom based on its atom type. The prediction engine distinguishes a total of 368 atom types and was optimized using a training set of more than 5000 molecules with experimentally determined log P values. The free prediction engine has proven to outperform many alternative calculation methods (29).
Metabolic stability of the test compounds was evaluated in pooled liver microsomes from human species. Test compounds were pre-incubated with liver microsomes in phosphate buffer (pH 7.4) in a 37° C. shaking water bath for 5 min and an NADPH-generating system was added to initiate the reaction. Samples were collected at time points of 0, 15, 30, 45 and 60 min and extracted with acetonitrile/methanol. After centrifugation, the supernatants were analysed by HPLC-MS/MS. T1/2 was calculated from the slope of the line obtained by plotting the natural logarithmic percentage (Ln %) of the test compound remaining in the reaction mixture vs. incubation time (min). CLint (μL/min/mg protein) was calculated from T1/2 using following equation: […]

HRH2 = HRH2 (Homo sapiens, UniProt P25021); test: cAMP HRH2 Agonist; format: cell-based; settings: for Emax: read-out: Max response
Description: (§1) cAMP Hunter cell lines were expanded from freezer stocks. […] For Gi agonist determination, cells were incubated with sample in the presence of EC80 forskolin to induce response. For both conditions, media was aspirated from cells and replaced with 15 μL 2:1 HBSS/10 mM HEPES:cAMP XS+ Ab reagent. […] 5 μL of 4× sample was added to cells and incubated at 37° C. or room temperature (RT) for 30 or 60 min. Final assay vehicle concentration was 1%. […] Media was aspirated from cells and replaced with 10 μL 1:1 HBSS/HEPES:cAMP XS+ Ab reagent. […] For Gi coupled GPCRs, EC80 forskolin was included. […] Compound activity was analyzed using CBIS data analysis suite (ChemInnovation, CA).

ADRB1 = ADRB1 (Homo sapiens, UniProt P08588); test: cAMP ADRB1 Antagonist; format: cell-based; settings: for Emax: read-out: Max response
Description: as §1

CNR2 = CNR2 (Homo sapiens, UniProt P34972); test: cAMP CNR2 Antagonist; settings: for Emax: read-out: Max response
Description: (§2) In vitro pharmacological profiling of compounds was done against 78 functional assays for 47 common off-targets (30) by Eurofins DiscoverX Corporation (Fremont, CA, USA) using their SAFETYscan E/IC50 ELECT service (Cat Ref 87-1003DR, Safety47 Panel Dose Response). […] Compounds were tested in a range of 10 concentrations, following a 3-fold serial dilution, starting from 10 μM.
(§3) cAMP Hunter cell lines were expanded from freezer stocks. Prior to testing, cells were seeded in a total volume of 20 μL into white walled 384-well microplates and incubated at 37° C. cAMP modulation was determined using the DiscoverX HitHunter cAMP XS+ assay. For Gs agonist determination, cells were incubated with sample to induce response. For Gi agonist determination, cells were incubated with sample in the presence of EC80 forskolin to induce response. For both conditions, media was aspirated from cells and replaced with 15 μL 2:1 HBSS/10 mM HEPES:cAMP XS+ Ab reagent. Intermediate dilution of sample stocks was performed to generate 4× sample in assay buffer (containing 4×EC80 forskolin in the case of antagonist determination). 5 μL of 4× sample was added to cells and incubated at 37° C. or room temperature (RT) for 30 or 60 min. Final assay vehicle concentration was 1%. For antagonist determination, cells were pre-incubated with sample followed by agonist challenge at the EC80 concentration. Media was aspirated from cells and replaced with 10 μL 1:1 HBSS/HEPES:cAMP XS+ Ab reagent. 5 μL of 4× compound was added to the cells and incubated at 37° C. or RT for 30 min. 5 μL of 4×EC80 agonist was added to the cells and incubated at 37° C. or RT for 30 or 60 min. For Gi coupled GPCRs, EC80 forskolin was included. […] Microplates were read following signal generation with a PerkinElmer Envision™ instrument for chemiluminescent signal detection. Compound activity was analyzed using CBIS data analysis suite (ChemInnovation, CA). For Gs agonist mode assays, percentage activity was calculated using the following equation:

HTR1A = target: T1, HTR1A (Homo sapiens, UniProt P08908); test: cAMP HTR1A Antagonist; settings: for Emax: read-out: Max response
T1 sequence (P08908 1-422): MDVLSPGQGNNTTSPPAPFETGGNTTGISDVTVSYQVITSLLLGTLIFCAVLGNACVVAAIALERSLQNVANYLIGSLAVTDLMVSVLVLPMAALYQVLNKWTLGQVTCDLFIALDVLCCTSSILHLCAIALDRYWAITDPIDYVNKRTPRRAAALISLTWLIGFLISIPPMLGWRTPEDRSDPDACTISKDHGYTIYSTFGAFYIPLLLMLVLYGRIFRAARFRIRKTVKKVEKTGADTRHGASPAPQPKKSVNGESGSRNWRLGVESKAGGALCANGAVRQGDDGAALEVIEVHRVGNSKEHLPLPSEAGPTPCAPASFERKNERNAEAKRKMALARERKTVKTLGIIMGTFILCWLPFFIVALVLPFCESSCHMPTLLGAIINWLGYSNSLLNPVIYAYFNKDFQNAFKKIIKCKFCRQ
Description: as §2
cAMP Hunter cell lines were expanded from freezer stocks. Prior to testing, cells were seeded in a total volume of 20 μL into white walled 384-well microplates and incubated at 37° C. cAMP modulation was determined using the DiscoverX HitHunter cAMP XS+ assay. For Gs agonist determination, cells were incubated with sample to induce response. For Gi agonist determination, cells were incubated with sample in the presence of EC80 forskolin to induce response. For both conditions, media was aspirated from cells and replaced with 15 μL 2:1 HBSS/10 mM HEPES:cAMP XS+ Ab reagent. Intermediate dilution of sample stocks was performed to generate 4× sample in assay buffer (containing 4×EC80 forskolin in the case of antagonist determination). 5 μL of 4× sample was added to cells and incubated at 37° C. or room temperature (RT) for 30 or 60 min. Final assay vehicle concentration was 1%. For antagonist determination, cells were pre-incubated with sample followed by agonist challenge at the EC80 concentration. Media was aspirated from cells and replaced with 10 μL 1:1 HBSS/HEPES:cAMP XS+ Ab reagent. 5 μL of 4× compound was added to the cells and incubated at 37° C. or RT for 30 min. 5 μL of 4×EC80 agonist was added to the cells and incubated at 37° C. or RT for 30 or 60 min. For Gi coupled GPCRs, EC80 forskolin was included. […] Microplates were read following signal generation with a PerkinElmer Envision™ instrument for chemiluminescent signal detection. Compound activity was analyzed using CBIS data analysis suite (ChemInnovation, CA).

ADRA2A = target: T2, ADRA2A (Homo sapiens, UniProt P08913); test: cAMP ADRA2A Antagonist; settings: for Emax: read-out: Max response
T2 sequence (P08913 1-465): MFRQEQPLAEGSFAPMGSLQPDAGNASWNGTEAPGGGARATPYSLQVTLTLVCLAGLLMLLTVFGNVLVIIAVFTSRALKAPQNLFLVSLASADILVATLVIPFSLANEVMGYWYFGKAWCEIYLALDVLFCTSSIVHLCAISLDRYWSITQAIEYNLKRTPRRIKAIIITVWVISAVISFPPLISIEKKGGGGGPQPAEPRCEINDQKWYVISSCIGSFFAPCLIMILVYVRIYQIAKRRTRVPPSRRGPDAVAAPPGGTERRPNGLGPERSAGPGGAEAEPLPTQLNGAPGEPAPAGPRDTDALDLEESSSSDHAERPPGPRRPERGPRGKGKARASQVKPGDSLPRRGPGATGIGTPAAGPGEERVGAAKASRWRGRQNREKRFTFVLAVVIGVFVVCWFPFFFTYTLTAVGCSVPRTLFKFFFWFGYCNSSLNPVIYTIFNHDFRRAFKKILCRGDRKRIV
Description: as §2, §3

ADRA1A = target: T3, ADRA1A (Homo sapiens, UniProt P35348); test: Calcium Flux ADRA1A Antagonist; settings: for Emax: read-out: Max response
T3 sequence (P35348 1-466): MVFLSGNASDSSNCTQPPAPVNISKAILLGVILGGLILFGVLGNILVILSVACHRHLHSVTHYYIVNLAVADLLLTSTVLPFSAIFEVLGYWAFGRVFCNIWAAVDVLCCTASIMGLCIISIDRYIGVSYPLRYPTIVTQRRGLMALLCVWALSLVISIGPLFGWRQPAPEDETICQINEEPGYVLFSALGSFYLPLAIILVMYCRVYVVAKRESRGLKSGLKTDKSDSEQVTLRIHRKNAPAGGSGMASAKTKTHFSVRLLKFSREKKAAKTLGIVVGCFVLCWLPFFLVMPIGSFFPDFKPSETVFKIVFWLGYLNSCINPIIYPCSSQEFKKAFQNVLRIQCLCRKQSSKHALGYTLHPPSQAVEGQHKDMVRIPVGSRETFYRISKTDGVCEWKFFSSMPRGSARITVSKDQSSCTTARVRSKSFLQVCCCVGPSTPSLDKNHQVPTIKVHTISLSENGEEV
Description: In vitro pharmacological profiling of compounds was done against 78 functional assays for 47 common off-targets (30) by Eurofins DiscoverX Corporation (Fremont, CA, USA) using their SAFETYscan E/IC50 ELECT service (Cat Ref 87-1003DR, Safety47 Panel Dose Response). […] Compounds were tested in a range of 10 concentrations, following a 3-fold serial dilution, starting from 10 μM. The assays were performed utilizing the PathHunter enzyme fragment complementation (EFC) technology, FLIPR®-based cellular screening assays, and KINOMEscan kinase binding assays.
Prior to testing, cells (10,000 cells/well) were expanded from freezer stocks and seeded into a total volume of 50 μL into black walled, clear-bottom, Poly-D-lysine coated 384-well microplates and incubated at 37° C. […] Assays were performed in 1× dye loading buffer consisting of 1× Dye (DiscoverX, Calcium No Wash^PLUS kit, Catalog No. 90-0091), 1× Additive A and 2.5 mM Probenecid in HBSS/20 mM HEPES. Probenecid was prepared fresh. Prior to testing, media was aspirated from cells and replaced with 25 μL dye loading buffer. Cells were incubated for 45 min at 37° C. and then 20 min at RT. For agonist determination, 25 μL of 2× compound in HBSS/20 mM HEPES was added using a FLIPR Tetra (MDS). For antagonist determination, cells were pre-incubated with sample followed by agonist challenge at the EC80 concentration. 25 μL of 2× sample was added and cells were incubated for 30 min at RT in the dark to equilibrate plate temperature. After incubation, antagonist determination was initiated by addition of 25 μL of 1× compound with 3×EC80 agonist using FLIPR. For both agonist and antagonist formats, activity was measure on a FLIPR Tetra (MDS). Calcium mobilization was monitored for 2 min with a 5 sec baseline read.
FLIPR read—Area under the curve, was calculated for the entire 2 min read. Compound activity was analysed using CBIS data analysis suite (ChemInnovation, CA).

CNR2, sequence (P34972 whole entry): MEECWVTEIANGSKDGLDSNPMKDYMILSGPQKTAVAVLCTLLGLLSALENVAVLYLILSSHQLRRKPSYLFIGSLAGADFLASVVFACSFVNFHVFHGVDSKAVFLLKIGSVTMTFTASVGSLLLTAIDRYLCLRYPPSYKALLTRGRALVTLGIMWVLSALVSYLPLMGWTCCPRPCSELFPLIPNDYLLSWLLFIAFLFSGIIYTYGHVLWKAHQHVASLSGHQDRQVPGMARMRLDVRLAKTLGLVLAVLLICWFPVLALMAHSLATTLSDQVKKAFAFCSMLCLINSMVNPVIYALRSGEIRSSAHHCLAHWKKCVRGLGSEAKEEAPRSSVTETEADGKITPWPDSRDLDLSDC
HRH2, sequence (P25021 whole entry): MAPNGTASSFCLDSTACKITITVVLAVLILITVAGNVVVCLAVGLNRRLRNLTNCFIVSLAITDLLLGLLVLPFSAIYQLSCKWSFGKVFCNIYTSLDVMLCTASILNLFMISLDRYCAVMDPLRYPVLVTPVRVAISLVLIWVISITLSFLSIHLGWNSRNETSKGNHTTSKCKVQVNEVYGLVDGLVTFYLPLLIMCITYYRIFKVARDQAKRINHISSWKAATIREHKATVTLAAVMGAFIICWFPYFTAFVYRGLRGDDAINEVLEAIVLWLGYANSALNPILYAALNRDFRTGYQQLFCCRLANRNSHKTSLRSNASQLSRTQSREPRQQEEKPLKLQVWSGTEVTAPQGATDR
ADRB1, sequence (P08588 whole entry): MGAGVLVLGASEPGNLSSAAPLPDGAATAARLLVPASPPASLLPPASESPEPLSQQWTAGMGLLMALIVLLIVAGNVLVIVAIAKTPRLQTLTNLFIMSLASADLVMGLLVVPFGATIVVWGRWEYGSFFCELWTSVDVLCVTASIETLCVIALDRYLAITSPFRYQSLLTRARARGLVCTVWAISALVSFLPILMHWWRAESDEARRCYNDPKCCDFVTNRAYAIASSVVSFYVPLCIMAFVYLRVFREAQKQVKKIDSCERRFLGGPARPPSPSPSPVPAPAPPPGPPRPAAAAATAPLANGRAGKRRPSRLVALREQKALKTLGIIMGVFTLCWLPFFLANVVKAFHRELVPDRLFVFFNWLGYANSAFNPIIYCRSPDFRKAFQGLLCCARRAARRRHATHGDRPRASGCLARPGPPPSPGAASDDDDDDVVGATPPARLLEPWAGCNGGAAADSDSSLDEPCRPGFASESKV

Compound	half-life at 100 nM [1]	microsomal CLint at 100 nM [1]	EC50 (HRH2)	Emax (HRH2)	IC50 (ADRB1)	Emax (ADRB1)	IC50 (CNR2)	Emax (CNR2)	IC50 (HTR1A)	Emax (HTR1A)	IC50 (ADRA2A)	Emax (ADRA2A)	IC50 (ADRA1A)	Emax (ADRA1A)	Emax (HRH2; cAMP HRH2 Agonist)	EC50 (HRH2; cAMP HRH2 Agonist, read-out: RC50, result type EC50)	Emax (ADRB1; cAMP ADRB1 Antagonist)	IC50 (ADRB1; cAMP ADRB1 Antagonist, read-out: RC50, result type IC50)
CC(C)(C)c1ccc(C#CC(O)c2ccccc2)cc1 (racemic) [Compound 3.3, rac-3-(4-(tert-butyl)phenyl)-1-phenylprop-2-yn-1-ol]	19 min	381 µL/min/mg	> 10 µM	2.2%	> 10 µM	2.2%	> 10 µM	38.3%	> 10 µM	47.2%	> 10 µM	13%	> 10 µM	0%				
Clc1cccc(C#Cc2n[nH]c3ncccc23)c1 [Compound 10.1, 3-((3-chlorophenyl)ethynyl)-1H-pyrazolo[3,4-b]pyridine]	10 min	748 µL/min/mg					> 10 µM	0%	> 10 µM	0%	> 10 µM	0%	> 10 µM	0%	0.4%	> 10 µM	40.3%	> 10 µM
